Conditions: in tetrachloromethane

C[C@@H]1CC[C@@]2(OC1)O[C@H]1C[C@H]3[C@@H]4CC=C5C[C@@H](O)CC[C@]5(C)[C@H]4CC[C@]3(C)[C@H]1[C@@H]2C
Conditions	solubility (mole fraction)
291.95 K	0.00286
297.45 K	0.00334
299.85 K	0.00381
302.75 K	0.00429
306.95 K	0.00487
308.95 K	0.00536
311.35 K	0.00578
313.65 K	0.0063
316.15 K	0.00676
317.95 K	0.00718
318.95 K	0.00763
320.55 K	0.00804
322.35 K	0.00857
323.65 K	0.00905
325.15 K	0.0095
326.35 K	0.0099
327.85 K	0.0105
328.95 K	0.0109

Source: BigSolDB 2.1
